Test results published in ChEMBL document CHEMBL1201862, “PubChem BioAssay data set” (2004).
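Protocol summary: plate cells (96-well), add compound at 5 concentrations, incubate 48 h, interpolate endpoints linearly. The concentration for 50% growth inhibition is given as GI50.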 Active and inactive are the calls of the source. Cut-off read from the data, not from the text of the source: active = GI50 up to about 1.1 µM and inactive = higher.

How the values were obtained:
Assay in all cases: NCI-60 cell line screen, 48 h
KM12 = tested on: KM12
SK-MEL-2 = tested on: SK-MEL-2
MCF7 = tested on: MCF7
EKVX = tested on: EKVX
HCT-15 = tested on: HCT-15
UACC-62 = tested on: UACC-62
OVCAR-3 = tested on: OVCAR-3
HOP-62 = tested on: HOP-62
CCRF-CEM = tested on: CCRF-CEM
NCI-H23 = tested on: NCI-H23
CAKI-1 = tested on: CAKI-1
HL-60 = tested on: HL-60
Malme-3M = tested on: Malme-3M
SF-295 = tested on: SF-295
RPMI-8226 = tested on: RPMI-8226
NCI-H460 = tested on: NCI-H460
A549 = tested on: A549
NCI-H226 = tested on: NCI-H226
SN12C = tested on: SN12C
TK-10 = tested on: TK-10

SMILES	GI50 (KM12)	GI50 (SK-MEL-2)	GI50 (MCF7)	GI50 (EKVX)	GI50 (HCT-15) [µM]	GI50 (UACC-62)	GI50 (OVCAR-3)	GI50 (HOP-62)	GI50 (CCRF-CEM)	GI50 (NCI-H23)	GI50 (CAKI-1)	GI50 (HL-60)	GI50 (Malme-3M)	GI50 (SF-295)	GI50 (RPMI-8226)	GI50 (NCI-H460)	GI50 (A549)	GI50 (NCI-H226)	GI50 (SN12C)	GI50 (TK-10)
CN1C(=O)c2ccccc2NC(=O)c2cnn(C)c21	> 100 µM (inactive)	> 100 µM (inactive)	> 100 µM (inactive)	> 100 µM (inactive)	> 100	> 100 µM (inactive)	> 100 µM (inactive)	> 100 µM (inactive)	> 100 µM (inactive)	> 100 µM (inactive)	> 100 µM (inactive)	> 100 µM (inactive)	> 100 µM (inactive)	> 100 µM (inactive)	> 100 µM (inactive)	> 100 µM (inactive)	> 100 µM (inactive)	> 100 µM (inactive)	> 100 µM (inactive)	–
COc1ccc(N2NC(c3ccccc3)(c3ccccc3)C(C)C2=O)cc1 (stereo not drawn)	33 µM (inactive)	51.8 µM (inactive)	25.5 µM (inactive)	68.7 µM (inactive)	39.5	91.2 µM (inactive)	> 100 µM (inactive)	> 100 µM (inactive)	35.6 µM (inactive)	65.6 µM (inactive)	54.2 µM (inactive)	35.3 µM (inactive)	61.7 µM (inactive)	36.3 µM (inactive)	> 100 µM (inactive)	29.6 µM (inactive)	34.4 µM (inactive)	49.8 µM (inactive)	82.8 µM (inactive)	86.7 µM (inactive)
COC1=CC(=O)c2c(c(O)c3oc4cc(OC)cc(C)c4c(=O)c3c2O)C1=O [BIKAVERIN]	3.25 µM (inactive)	0.865 µM (active)	1.69 µM (inactive)	1.01 µM (active)	1.21	1.24 µM (inactive)	0.809 µM (active)	1.1 µM (active)	0.741 µM (active)	1.07 µM (active)	0.195 µM (active)	0.386 µM (active)	1.17 µM (inactive)	1.12 µM (inactive)	1.01 µM (active)	1.34 µM (inactive)	1.6 µM (inactive)	0.159 µM (active)	1.56 µM (inactive)	–
